Source: the supplement of paper PMC10307832

Key:
Experiment in all cases: relative viability (nuclei count vs DMSO), 5 days (fraction); higher = more cells survive
[1] = compound: CCn1c(-c2nonc2N)nc2cnc(Oc3cccc(NC(=O)c4ccc(OCCN5CCOCC5)cc4)c3)cc21 + Nc1ncn([C@H]2C[C@H](O)[C@@H](CO)O2)c(=O)n1 [Decitabine] (partner 2 µM)
Outline: (§1)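 Nuclei were stained with Hoechst during a one-step fixation (final 0.05% Triton X-100, 1% formaldehyde, 1 ug/ml Hoechst) carried out 5 days after dosing, then counted on 4× images. The cells, lung cancer lines in 1536-well plates, had been dosed by pin tool the day after seeding with one drug alone or a fixed anchor-drug dose plus five library-drug doses (not always all listed) in √10 steps. Relative viability is the nuclei count in treated wells divided by that in vehicle wells, and each value is the median of duplicate plates.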

[2] = compound: CCC1=CN=CN=C1N2CCN(CC2)CC3=NC4=C(N3)C=C(C=C4)C(F)(F)F + CC(C)C[C@H](NC(=O)[C@H](Cc1ccccc1)NC(=O)c1cnccn1)B(O)O [Bortezomib] (partner 0.002 µM)
Outline: as §1

[3] = compound: CCC1=CN=CN=C1N2CCN(CC2)CC3=NC4=C(N3)C=C(C=C4)C(F)(F)F + C[C@@H](Oc1cc(-c2cnn(C3CCNCC3)c2)cnc1N)c1c(Cl)ccc(F)c1Cl [Crizotinib] (partner 1 µM)
Outline: as §1

[4] = compound: N=C1NC(=O)/C(=C/c2ccc(O)cc2)S1 [Mirin] + CCNC(=O)c1noc(-c2cc(C(C)C)c(O)cc2O)c1-c1ccc(CN2CCOCC2)cc1 [Luminespib] (partner 0.01 µM)
Outline: as §1

Cell Line	relative viability ([1]; first compound 0.04 µM)	relative viability ([1]; first compound 0.1265 µM)	relative viability ([1]; first compound 0.4 µM)	relative viability ([1]; first compound 1.265 µM)	relative viability ([1]; first compound 4 µM)	relative viability ([2]; first compound 0.04 µM)	relative viability ([2]; first compound 0.1265 µM)	relative viability ([2]; first compound 0.4 µM)	relative viability ([2]; first compound 1.265 µM)	relative viability ([2]; first compound 4 µM)	relative viability ([3]; first compound 0.04 µM)	relative viability ([3]; first compound 0.1265 µM)	relative viability ([3]; first compound 0.4 µM)	relative viability ([3]; first compound 1.265 µM)	relative viability ([3]; first compound 4 µM)	relative viability ([4]; first compound 0.25 µM)	relative viability ([4]; first compound 0.7906 µM)	relative viability ([4]; first compound 2.5 µM)	relative viability ([4]; first compound 7.906 µM)	relative viability ([4]; first compound 25 µM)
SW 1573	0.476	0.466	0.365	0.23	0.173	1.09	1.08	0.937	0.893	0.892	0.81	0.833	0.968	0.834	0.922	0.228	0.272	0.247	0.201	0.205
NCI-H1975	0.311	0.289	0.293	0.228	0.201	0.449	0.341	0.363	0.335	0.318	1.08	0.983	0.968	1.11	1.04	0.201	0.254	0.16	0.306	0.125
SK-LU-1	0.628	0.571	0.423	0.459	0.424	1.09	1.03	1.16	–	1.13	1	1.1	0.99	1.06	1.02	0.193	0.188	0.228	0.163	0.197
NCI-H460	0.515	0.574	0.383	0.245	0.148	1.11	1.1	0.977	1.06	0.951	1.06	1.03	0.886	0.832	1.14	0.0342	0.0263	0.0361	0.0242	0.0254
LCLC-103H	0.647	0.686	0.704	0.664	0.723	1.04	0.959	1.07	1.07	1.18	1.09	1.01	1.04	1	1.16	0.931	1.06	0.93	1.05	1
NCI-H1915	0.249	0.265	0.275	0.24	0.21	1.01	0.907	0.966	0.962	1.01	0.916	0.878	0.85	0.934	1.03	0.776	–	0.783	0.676	0.77
